Assay: Human HepG2 cell viability assay in 384 well format
Type: toxicity, cell-based
Design: dose 125 nL, time 70.5 hour; concentration not given beside the values
Details: HepG2 cells, read-out: Inhibition

COc1cc(C)nc(N2CCN(C(=O)CCc3ccncc3)CC2)n1 showed a cytotoxicity at 70.5 h of 28%.
CNC(=O)C(NC(=O)c1nccn2ccnc12)c1ccc(F)c(F)c1 (stereo not drawn) showed a cytotoxicity at 70.5 h of -1.99%.
CCN1Cc2cc3c(cc2NCCC1=O)OCO3 showed a cytotoxicity at 70.5 h of 6.48%.
In the case of COCc1nc(CN2C(=O)OC[C@@H]2C(C)C)no1, the cytotoxicity at 70.5 h is reported as -6.26%.
In the case of Cc1cnn(CC(C)NCc2csc(-c3ccco3)n2)c1 (stereo not drawn), the cytotoxicity at 70.5 h is reported as 4.15%.
CC(NC(=O)NCC(C)(C)O)c1ccc(-c2cncnc2)cc1 (stereo not drawn) showed a cytotoxicity at 70.5 h of 19.1%.
For CCC(CCNCc1cnc(C2CCC2)s1)N1CCCC1=O (stereo not drawn), the cytotoxicity at 70.5 h was 26.8%.
With COCCO[C@H]1CCN(Cc2ccsc2)[C@H]1Cc1cccnc1 the cytotoxicity at 70.5 h was 24.4%.
CNC(=O)[C@@]12CCO[C@@H]1CCN(S(=O)(=O)c1ccccc1C)C2 showed a cytotoxicity at 70.5 h of -10.5%.
Compound C[C@@H]1CN(Cc2ccc(-c3ccncc3)cc2F)CC(C(N)=O)O1 (stereo partly drawn) has a cytotoxicity at 70.5 h of -0.906%.
For O=C1CC(c2cccs2)c2snc(C(=O)O)c2N1 (stereo not drawn), the cytotoxicity at 70.5 h was -9.35%.
For Cc1cc(=O)[nH]c(=O)n1-c1cccc(Cl)c1Cl, the cytotoxicity at 70.5 h was -12.3%.
For O=C1CN(C(=O)OCc2ccccc2)CC(O)CN1Cc1ccco1 (stereo not drawn), the cytotoxicity at 70.5 h was 12.1%.
Cn1ccc(CNC(=O)N2CCCC3(C2)OCCO3)c1 gave a cytotoxicity at 70.5 h of 0.239%.
With OC(CN(Cc1ccccc1)Cc1ccncc1)c1cccs1 (stereo not drawn) the cytotoxicity at 70.5 h was 21.6%.
CNC(=O)CN1CCCC12CCN(C(=O)c1ccccc1F)CC2 showed a cytotoxicity at 70.5 h of -10.4%.
With O=C(O)C1c2nc[nH]c2CCN1CC(c1ccccc1)c1ccccc1 (stereo not drawn) the cytotoxicity at 70.5 h was -3.04%.
Work on CC(C)OC(=O)N1C[C@H]2CC[C@@H]1CN(C(=O)c1ccccc1)C2 yielded a cytotoxicity at 70.5 h of -2.95%.
Cc1ccc(=O)n(CC2(O)CCN(Cc3cnc(C)nc3)CC2)n1 showed a cytotoxicity at 70.5 h of -10.4%.
With CC(CCN(C)C)NC(=O)c1cccc(C(F)(F)F)c1F (stereo not drawn) the cytotoxicity at 70.5 h was -1.47%.
In the case of Cn1c(CCNC(=O)C2CCCN(C3CCOCC3)C2)n[nH]c1=O (stereo not drawn), the cytotoxicity at 70.5 h is reported as -1.23%.
Compound Cc1cc(C2CCC2)nc(N(C)Cc2ncccc2C)n1 has a cytotoxicity at 70.5 h of 2.14%.
In the case of COc1ccc(C2CN(c3cc(C)ncn3)CCN2C(C)=O)cc1 (stereo not drawn), the cytotoxicity at 70.5 h is reported as -5.95%.
CNC(=O)c1cn2cc(-c3ccccc3Cl)n(CC=C(C)C)c(=O)c2n1 gave a cytotoxicity at 70.5 h of 35.1%.
With COCCn1nc(C(=O)N2CCOCC2C)ccc1=O (stereo not drawn) the cytotoxicity at 70.5 h was 16.9%.
Cc1cc(-c2c[nH]nc2C2CCCCN2C(=O)c2ccccc2)on1 (stereo not drawn) gave a cytotoxicity at 70.5 h of -9.53%.
Cc1c(C(=O)N2CCCC(n3nnc4cc(F)ccc43)C2)cnn1C (stereo not drawn) gave a cytotoxicity at 70.5 h of -14.1%.
In the case of CC(C)NC(=O)C1CCc2nnc(C(C)(C)C)n21 (stereo not drawn), the cytotoxicity at 70.5 h is reported as -5.68%.
In the case of CC(C(=O)NC1CC1)S(=O)(=O)Cc1noc(C(C)(C)C)n1 (stereo not drawn), the cytotoxicity at 70.5 h is reported as -1.87%.
Compound Cc1cccc(NCC(=O)Nc2cc(F)ccc2F)c1C(N)=O has a cytotoxicity at 70.5 h of -8.06%.
O=C(c1ccc2[nH]ccc2c1)N1CCCCC1c1nc[nH]n1 (stereo not drawn) gave a cytotoxicity at 70.5 h of -5.67%.
Compound CN1CCN(Cc2noc(CC3CCc4ccccc43)n2)CC1 (stereo not drawn) has a cytotoxicity at 70.5 h of -7.61%.
In the case of CC1=N[C@@]2(CC[C@@H]3CN(C(=O)NC(C)C)C[C@@H]32)C(=O)N1CC(C)C, the cytotoxicity at 70.5 h is reported as -3.41%.
Compound CC(C)c1cc(C2CCN(C(=O)Cn3cncn3)CC2)[nH]n1 has a cytotoxicity at 70.5 h of 43.3%.
In the case of CNC(=O)CN(C)Cc1ccc(F)cc1Cl, the cytotoxicity at 70.5 h is reported as -6.72%.
Compound c1csc(CNCC2COCc3c(-c4ccsc4)nnn3C2)n1 (stereo not drawn) has a cytotoxicity at 70.5 h of -7.15%.
In the case of CCn1cnnc1CNC(=O)N1CCN(c2cccc(OC)c2)CC1, the cytotoxicity at 70.5 h is reported as -6.51%.
CC(=O)N1CCC(c2ccnc(Nc3cc(C(F)(F)F)ccn3)n2)C1 (stereo not drawn) gave a cytotoxicity at 70.5 h of 19.8%.
In the case of CC(=O)N1CCC2(C1)CN(S(=O)(=O)c1ccccc1)C2, the cytotoxicity at 70.5 h is reported as -7.01%.
In the case of COCCn1ccc2c(C(=O)NCC3CCCO3)cccc21 (stereo not drawn), the cytotoxicity at 70.5 h is reported as -8.34%.
For CCC1CNCc2cc3c(OC)ccc(OC)c3nc2O1 (stereo not drawn), the cytotoxicity at 70.5 h was 12.3%.
Cc1nccn1C1CCCN(C(=O)c2ccc3c(c2)nc(C)n3C)C1 (stereo not drawn) gave a cytotoxicity at 70.5 h of -3.08%.
With Cc1cnn(CC(=O)N2CCC(Nc3ccc(C)nn3)CC2)c1 the cytotoxicity at 70.5 h was 12.8%.
For c1cc(CNc2nnc(Cc3ccsc3)o2)cs1, the cytotoxicity at 70.5 h was -8.44%.
O=C(CCC(=O)Nc1nnc(C2CCCCC2)s1)NCC1CCCO1 (stereo not drawn) showed a cytotoxicity at 70.5 h of -12.1%.
Work on c1cnn(Cc2nnc3n2CCCN(c2nccs2)C3)c1 yielded a cytotoxicity at 70.5 h of 12.8%.
Compound O=C(O)[C@@H]1CN(C(=O)CCc2ccccn2)C[C@H]1c1ccccc1 has a cytotoxicity at 70.5 h of -4.59%.
Cc1ccccc1N1CCN(C(=O)Cn2ccnc2)CC1=O showed a cytotoxicity at 70.5 h of 14.2%.
Cc1ccc(S(=O)(=O)NC(=O)COc2cccc(C(N)=O)c2)s1 gave a cytotoxicity at 70.5 h of -10.7%.
For CC(C)(CN1CCC2(CCCNC2)C1)N1CCOCC1 (stereo not drawn), the cytotoxicity at 70.5 h was 8.57%.
Work on COc1ccnc(CNc2cc(C3CC3)ncn2)c1 yielded a cytotoxicity at 70.5 h of -11.7%.
CCc1ncnc2c1CCN(CC(=O)N(C)C)CC2 gave a cytotoxicity at 70.5 h of -1.77%.
For CCS(=O)(=O)N1CCC(c2nc(C)c(C)c(N3CCCC3)n2)CC1, the cytotoxicity at 70.5 h was 2.09%.
Compound Cn1cc(C(=O)CC2CCCN2C(=O)c2ccncc2F)cn1 (stereo not drawn) has a cytotoxicity at 70.5 h of -9.05%.
CCNC(=O)CN(Cc1ccoc1)C1CCCCC1 showed a cytotoxicity at 70.5 h of -9.92%.
In the case of CN1CCCN(c2nccc(-c3c[nH]c4ccc(Br)cc34)n2)CC1, the cytotoxicity at 70.5 h is reported as 9.19%.
In the case of C=C(C)COCCNC(=O)N1CCc2c(cccc2OC)C1, the cytotoxicity at 70.5 h is reported as 7.17%.
For CN1CCCC(c2cccc(-c3cccc(C(F)(F)F)c3)n2)C1 (stereo not drawn), the cytotoxicity at 70.5 h was -2.8%.

Source: ChEMBL document CHEMBL3507680, “University of Dundee, Gates Library screen for HepG2 cell viability”
